Data: US4585795A, “Control agent for protecting timber against fungi employing a mixture of an organic carboxylic acid salt and quaternary ammonium salt” (priority 1982, dated 1986)
Values after ≈ are worked out from the molar mass of the structure shown. Values joined by “and” are separate entries in the source; they are usually repeats but may differ in a detail not shown here. Equal entries are not always repeated. “Also recorded” adds a separate entry of the source. Structures can show the parent of a compound that is named as a salt. Where two headings read alike, the source gives them in different places.

Key:
[1] = test system: Aureobasidium pullulans; assay: dish cultures, growth inhibition of A. pullulans (Czapek-Dox agar); type: cell-based; conditions: 360 h
Description: Laboratory experiments were carried out by making (1) dish cultures with Czapek-Dox agar at a temperature of 23° C. and (2) mini-board tests at a temperature of 23° C. and a humidity of 100%. The dish cultures had been inoculated with spores of the fungus Aureobasidium pullulans. This is a known fungus causing sapstain. In the mini-board tests, the inoculation was carried out using a spore suspension which contained a mixture of the spores of sapstain fungi. The sapstain fungi used were Aureobasidium pullulans, Sclerophoma entoxylina and Ceratocystis pilifera. […]
In dish cultures with A. pullulans fungus it was observed that growth was inhibited at, for example, the following concentrations of the control agents studied within a culture period of 15 days:
Using certain mixtures of these control agents, fungus growth could be inhibited at the following concentrations, for example: […]

[2] = known organic acids used as control agents; cited from earlier work
[3] = test system: surface mildew; assay: mini-board test on timber, surface mildew; conditions: Example 2; 1.2% active ingredient in wetting solution, pH 8.4, fresh timber, 23° C., 1 month; 0-5 very good, 6-10 average, 11-15 poor, 16-20 very poor
Description: (§1) Laboratory experiments were carried out by making (1) dish cultures with Czapek-Dox agar at a temperature of 23° C. and (2) mini-board tests at a temperature of 23° C. and a humidity of 100%. The dish cultures had been inoculated with spores of the fungus Aureobasidium pullulans. This is a known fungus causing sapstain. In the mini-board tests, the inoculation was carried out using a spore suspension which contained a mixture of the spores of sapstain fungi. The sapstain fungi used were Aureobasidium pullulans, Sclerophoma entoxylina and Ceratocystis pilifera.
(§2) In the mini-board tests it was studied whether the toxic effect is retained on the surface of timber. The dimensions of the mini-boards were 10×50×300 mm. They had been made from newly felled pine. The pieces were immersed for 20 s into the solutions studied and were then weighed and inoculated. The control pieces were immersed into pure water. Some of the test pieces were dried for 1 month at 23° C. at a humidity of 100% in dishes covered with a plastic sheet, whereafter the sapstain and the mildew growth in them were assessed visually.
(§3) The control agent composition presented in Test 4 of Example 3 was modified in such a way that part of the dodecylbenzyldimethylammonium chloride was replaced with technical dialkyldimethylammonium chloride which contained, bound with nitrogen, C8 -C18 alkyl groups as follows: […], C10 -9%, C12 -47%, C14 -18%, C16 -8% and C18 -10%.

[4] = test system: sapstain fungi (Aureobasidium pullulans, Sclerophoma entoxylina, Ceratocystis pilifera); assay: mini-board test on timber, sapstain; conditions: for Grading points, Sapstain: Example 2, 1.2% active ingredient in wetting solution, pH 8.4, fresh timber, 23° C., 1 month, 0-5 very good, 6-10 average, 11-15 poor, 16-20 very poor; for synergism with Na-2-ethylhexanoate (in words): examples 2, 5, 6 and 12
Description: as §1, §2, §3

[5] = test system: mildew fungi (Cladosporium sphaerospermum, Penicillum Sp., Aspergillus amstelodami); assay: mini-board one-side immersion test, mildew growth (DDC / 2-EHA-Na); conditions: Example 6; dry matter of wetting solution 1.5%
Description: The concentration of the solution was 2.5%. The immersion period was 20 s. The boards were allowed to drip, and they were inoculated with the above-mentioned spore suspension of sapstain fungi.
The following experiment was carried out as in Example 5, but a suspension of spores of the mildew fungi listed below was used for the inoculations:
(§4) Cladosporium sphaerospermum

[6] = test system: sapstain fungi (Aureobasidium pullulans, Sclerophoma entoxylina, Ceratocystis pilifera); assay: mini-board one-side immersion test, sapstain (DDC / 2-EHA-Na); conditions: 3 weeks, 23° C.
Description: as §1
[…] The immersion period was 20 s. The boards were allowed to drip, and they were inoculated with the above-mentioned spore suspension of sapstain fungi.

[7] = test system: sapstain fungi; assay: miniboard test, sapstain (Examples 8-12); conditions: for Growth of fungi, Sapstain (score): Example 12, pH 10
Description: as §1
(§5) The other half of the miniboards was dipped into the control agent solutions for 20 seconds. […] The pH was 8.5-10.0. The board were allowed to drip and they were inoculated with the above mentioned spore suspensions of sapstain and mold fungi. The boards were stored at 100% relative humidity (R.H.) at 20° C. They were inspected and visually rated after 3 weeks incubation time.
(§6) 1--some traces of fungal growth
(§7) 2--several colonies of growing fungi
(§8) 3--25% of the surface discoloured
(§9) 4--50% of the surface discoloured
(§10) The miniboards were inspected and rated after 3 weeks incubation time at 20° C. and 100% R.H. Results are presented in tables 3 and 4 as the average score of ten replicate samples.
(§11) Results are presented in tables 5-7 as the average score of ten replicate samples.
(§12) The miniboards were treated as in foregoing examples but the treatment solution contained dioctyldimethylammonium chloride instead of trimethylcocoammonium chloride.

[8] = test system: mold fungi; assay: miniboard test, molds (surface mildew) (Examples 8-12); conditions: for Growth of fungi, Molds (score): Example 12, pH 10; for synergism with trimethylcoco ammonium chloride (in words): mold tests, Examples 8-11; for Growth of fungi, Freshly cut pine sapwood, Molds (score): average of ten replicates
Description: as §4, §5, §6, §7, §8, §9, §10, §11, §12

[9] = test system: mold fungi; assay: as above; conditions: TABLE 2; […] active ingredients, pH 8.5-10.0, 5 weeks, 20° C., 100% R.H.; average of ten replicates
[10] = test system: sapstain fungi; assay: miniboard test, sapstain (Examples 8-12); conditions: TABLE 2; […] active ingredients, pH 8.5-10.0, 5 weeks, 20° C., 100% R.H.; average of ten replicates
[11] = pH 2.5, read-out: concentration at which growth was inhibited
[12] = pH 5, read-out: concentration at which growth was inhibited
[13] = pH 7, read-out: concentration at which growth was inhibited
[14] = pH 2.5, 15 days culture, single agents, read-out: concentration at which growth was inhibited
[15] = pH 5.0, 15 days culture, single agents, read-out: concentration at which growth was inhibited
[16] = pH 7.0, 15 days culture, single agents, read-out: concentration at which growth was inhibited
[17] = Example 5, Test 1, dry matter of wetting solution 1.5%
[18] = Example 5, Test 2, dry matter of wetting solution […]
[19] = TABLE 1, […] active ingredients, pH 8.5-10, 3 weeks, brackets not explained
[20] = TABLES 5-7, […] active ingredients, pH 8.5-10.0, rated as in examples 9-10, average of ten replicates
[21] = TABLES 5-7, […] active ingredients, pH 8.5-10.0, rated as in examples 9-10
[22] = TABLES 3-4, […] active ingredients, pH 8.5-10.0, 3 weeks, 20° C., 100% R.H., average of ten replicates
[23] = TABLES 3-4, […] active ingredients, pH 8.5-10.0, 3 weeks, 20° C., 100% R.H.

CCCCC(CC)C(=O)O (stereo not shown) [2-ethyl hexanoic acid]
MIC [1, 11]: 50 mg/L (≈ 347 µM)
MIC [1, 12]: > 100 mg/L
MIC [1, 13]: > 1000 mg/L
pKa [2]: 4.81

CC(=O)Oc1ccccc1C(=O)O [Acetylsalicylic acid]
MIC [1, 11]: 25 mg/L (≈ 139 µM)
MIC [1, 12]: > 100 mg/L
MIC [1, 13]: > 1000 mg/L

CCCCCCCCCCCC[N+](C)(C)Cc1ccccc1.[Cl-] [BAC, dodecylbenzyldimethylammonium chloride]
Grading points, Surface mildew [3]: 8.5 points and 4.5 points
MIC [1, 11]: 50 mg/L
MIC [1, 12]: 10 mg/L
MIC [1, 13]: 2 mg/L
Grading points, Sapstain [4]: 2 points and 1.5 points
synergism with Na-2-ethylhexanoate (in words) [4]: proved

O=C(O)c1ccccc1 [Benzoic acid]
MIC [1, 11]: 50 mg/L (≈ 409 µM)
MIC [1, 12]: > 100 mg/L
MIC [1, 13]: > 100 mg/L

CCCCCCCCCC(=O)O [Capric acid]
Grading points, Surface mildew [3]: 14 points
MIC [1, 14]: 50 mg/L (≈ 290 µM)
MIC [1, 15]: 100 mg/L (≈ 580 µM)
MIC [1, 16]: > 100 mg/L
Grading points, Sapstain [4]: 3.5 points

CCCCCC(=O)O [Capronic acid]
pKa [2]: 4.83

CCCCCCCCCC[N+](C)(C)CCCCCCCCCC.[Cl-] [DDC, didecyldimethylammonium chloride]
Grade points, Mildew growth, Treated side [5]: 11 points
Grade points, Sapstain, Treated side [6, 17]: 12 points
Grade points, Sapstain, Treated side [6, 18]: 5 points
synergism with Na-2-ethylhexanoate (in words) [4]: proved

CCCCCCCCCCCC[N+](C)(C)C.[Cl-] [DMC, dodecyltrimethylammonium chloride]
MIC [1, 11]: 15 mg/L
MIC [1, 12]: 15 mg/L
MIC [1, 13]: 4 mg/L
Grading points, Sapstain [4]: 1 points

CCCCCCCCCCCC[n+]1ccccc1 [DPC, dodecylpyridinium chloride]
Grading points, Surface mildew [3]: 16 points
Grading points, Sapstain [4]: 3 points

CCCCCCCC[N+](C)(C)CCCCCCCC.[Cl-] [Dioctyldimethylammonium chloride, dioctyldimethylammonium chloride]
Growth of fungi, Sapstain (score) ([7]; […] active ingredients): 1
Growth of fungi, Molds (score) ([8]; […] active ingredients): 1.5
synergism with Na-2-ethylhexanoate (in words) [4]: proved

CCCCC(CC)C(=O)O (stereo not shown) [Na--2-ethylhexanoate, Na salt of 2-ethyl hexanoic acid]
Grade points, Mildew growth, Treated side [5]: 20 points
Growth of fungi, Freshly cut pine sapwood, Molds (surface mildew) (score) [9]: 20
Growth of fungi, Sapstain (score) ([7]; […] active ingredients): 10
Growth of fungi, Freshly cut pine sapwood, Sapstain (score) ([7]; TABLE 1, […] active ingredients, pH 8.5-10, 3 weeks, 20° C., 100% R.H., average of 5 replicates, value without brackets): 20
Growth of fungi, Freshly cut pine sapwood, Sapstain (score), value in square brackets [7, 19]: 2
control of sapstain (in words) ([7]; […] a.i. solution): quite ineffective in controlling mold and stain fungi
Growth of fungi, Freshly cut pine sapwood, Sapstain (score) [10]: 20
Growth of fungi, Molds (score) ([8]; […] active ingredients): 10
Growth of fungi, Freshly cut pine sapwood, Molds (surface mildew) (score), value in square brackets [8, 19]: 2
control of mold growth (in words) ([8]; […] a.i. solution): quite ineffective in controlling mold and stain fungi
synergism with trimethylcoco ammonium chloride (in words) [8]: most obvious
Grade points, Sapstain, Treated side [6, 17]: 20 points
Grade points, Sapstain, Treated side [6, 18]: 16 points

CCCCCCCCCC(=O)O [Na-caprinoate]
Growth of fungi, Freshly cut pine sapwood, Sapstain (score) [7, 20]: 2.5
Growth of fungi, Freshly cut pine sapwood, Molds (score) [8, 21]: 20

CCCCCCCC(=O)O [Na-caprylate]
Growth of fungi, Freshly cut pine sapwood, Sapstain (score) [7, 20]: 10.5
Growth of fungi, Freshly cut pine sapwood, Molds (score) [8, 21]: 20

CCCCCCC(=O)O [Na-heptanoate]
Growth of fungi, Freshly cut pine sapwood, Sapstain (score) [7, 20]: 7
Growth of fungi, Freshly cut pine sapwood, Molds (score) [8, 21]: 20

C/C=C/C=C/C(=O)O [Sorbic acid]
MIC [1, 14]: 50 mg/L (≈ 446 µM)
MIC [1, 15]: 100 mg/L (≈ 892 µM)
MIC [1, 16]: > 100 mg/L
pKa [2]: 4.77

Na-iso-octanoate
Growth of fungi, Freshly cut pine sapwood, Sapstain (score) [7, 22]: 20
Growth of fungi, Freshly cut pine sapwood, Molds (score) [8, 23]: 20
synergism with trimethylcoco ammonium chloride (in words) [8]: not as clear

Na-isononanoate
Growth of fungi, Freshly cut pine sapwood, Sapstain (score) [7, 22]: 20
Growth of fungi, Freshly cut pine sapwood, Molds (score) [8, 23]: 20
synergism with trimethylcoco ammonium chloride (in words) [8]: quite obvious; also recorded: most obvious
